The source of these data is patent US20200207759A1, “NEW PROPANAMINE DERIVATIVES FOR TREATING PAIN AND PAIN RELATED CONDITIONS” (ESTEVE PHARMACEUTICALS, S.A., priority 2017, published 2020).

Test [1] has as its target Human norepinephrine transporter (NET) (Homo sapiens, UniProt P23975). Nature of the test: Binding assay to human norepinephrine transporter (NET), [3H]-Nisoxetin. To be noted: human NET enriched membranes, 5 nM [3H]-Nisoxetin; read-out: Ki (nM) NET Hum. The method, boiled down:
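NET-enriched membranes (5 μg) incubated with 5 nM [3H]-nisoxetin in 50 mM Tris-HCl, 120 mM NaCl, 5 mM KCl, pH 7.4, for 60 min at 4 °C. Separation by filtration on PEI-soaked GF/C, then scintillation counting.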

Test [2] addresses Human α2δ-1 subunit of Cav2.2 calcium channel (Homo sapiens, UniProt P54289). Kind of test: Binding assay to human α2δ-1 subunit of Cav2.2 calcium channel, [3H]-Gabapentin. To be noted: human α2δ-1 enriched membranes, 15 nM [3H]-Gabapentin; read-out: Ki (nM) alpha2delta Hum. The method, boiled down:
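Human α2δ-1-enriched membranes incubated with 15 nM [3H]-gabapentin in 10 mM Hepes-KOH pH 7.4, 60 min at 27 °C; nonspecific binding defined with 10 μM pregabalin. Bound ligand separated by filtration on PEI-presoaked GF/C filters, washed with ice-cold 50 mM Tris-HCl pH 7.4, counted by scintillation.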

Sequence of Human norepinephrine transporter (NET) (P23975 whole entry): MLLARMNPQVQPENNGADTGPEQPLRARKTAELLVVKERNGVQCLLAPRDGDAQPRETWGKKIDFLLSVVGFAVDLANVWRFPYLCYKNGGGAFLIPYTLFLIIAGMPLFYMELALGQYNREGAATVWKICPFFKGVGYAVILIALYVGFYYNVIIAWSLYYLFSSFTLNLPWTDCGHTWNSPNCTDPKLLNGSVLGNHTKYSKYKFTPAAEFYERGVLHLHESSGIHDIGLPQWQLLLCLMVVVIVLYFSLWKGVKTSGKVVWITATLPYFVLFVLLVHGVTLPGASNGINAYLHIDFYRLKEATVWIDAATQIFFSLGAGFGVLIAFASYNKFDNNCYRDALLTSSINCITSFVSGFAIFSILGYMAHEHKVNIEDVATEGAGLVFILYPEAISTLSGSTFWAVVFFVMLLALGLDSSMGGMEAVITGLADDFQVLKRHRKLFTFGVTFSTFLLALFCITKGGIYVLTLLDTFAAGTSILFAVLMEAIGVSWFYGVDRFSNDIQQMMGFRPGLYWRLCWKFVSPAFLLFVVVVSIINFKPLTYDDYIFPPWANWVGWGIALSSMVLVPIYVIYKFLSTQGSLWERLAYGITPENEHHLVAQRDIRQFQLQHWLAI
Sequence of Human α2δ-1 subunit of Cav2.2 calcium channel (P54289 25-1103): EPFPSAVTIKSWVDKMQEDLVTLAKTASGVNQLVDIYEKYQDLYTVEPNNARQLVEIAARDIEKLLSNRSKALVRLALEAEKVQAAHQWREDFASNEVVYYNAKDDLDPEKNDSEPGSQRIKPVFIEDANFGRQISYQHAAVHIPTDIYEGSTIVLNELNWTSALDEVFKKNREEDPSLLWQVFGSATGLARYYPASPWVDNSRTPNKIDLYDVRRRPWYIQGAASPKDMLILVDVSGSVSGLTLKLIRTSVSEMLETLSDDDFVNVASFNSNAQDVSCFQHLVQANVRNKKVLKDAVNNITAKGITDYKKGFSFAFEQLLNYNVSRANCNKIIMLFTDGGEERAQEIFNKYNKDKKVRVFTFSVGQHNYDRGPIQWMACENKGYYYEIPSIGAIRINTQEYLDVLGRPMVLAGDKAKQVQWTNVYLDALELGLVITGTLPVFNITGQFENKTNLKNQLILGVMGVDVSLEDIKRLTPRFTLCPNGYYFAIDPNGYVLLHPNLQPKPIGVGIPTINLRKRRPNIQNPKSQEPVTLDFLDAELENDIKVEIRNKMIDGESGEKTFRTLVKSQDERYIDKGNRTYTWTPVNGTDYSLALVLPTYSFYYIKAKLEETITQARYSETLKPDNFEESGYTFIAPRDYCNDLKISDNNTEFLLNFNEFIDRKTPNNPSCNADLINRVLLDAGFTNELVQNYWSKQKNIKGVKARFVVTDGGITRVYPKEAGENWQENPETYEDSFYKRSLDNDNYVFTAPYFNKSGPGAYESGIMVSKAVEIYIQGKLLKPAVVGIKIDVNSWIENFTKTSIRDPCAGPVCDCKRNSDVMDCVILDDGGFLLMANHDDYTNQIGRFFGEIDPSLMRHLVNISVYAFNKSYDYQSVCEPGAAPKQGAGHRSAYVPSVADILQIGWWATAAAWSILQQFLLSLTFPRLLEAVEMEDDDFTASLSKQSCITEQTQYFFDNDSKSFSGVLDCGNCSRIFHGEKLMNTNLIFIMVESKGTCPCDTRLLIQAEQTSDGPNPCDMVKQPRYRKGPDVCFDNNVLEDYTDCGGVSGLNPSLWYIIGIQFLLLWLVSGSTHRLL

`CNCCC(c1cccs1)N1CCc2c(C#N)cccc21` (stereo not drawn) [Example 95, 1-(3-(Methylamino)-1-(thiophen-2-yl)propyl)indoline-4-carbonitrile]: the Ki in test [1] is below 100 nM; in test [2] it was 100 to 500 nM.

Regarding `CNCC[C@H](c1cccs1)N1CCc2ncc(C(C)C)cc21` [Example 39, (R)-3-(6-Isopropyl-2,3-dihydro-1H-pyrrolo[3,2-b]pyridin-1-yl)-N-methyl-3-(thiophen-2-yl)propan-1-amine], the Ki was above 1000 nM in test [1] and 100 to 500 nM in test [2].

`CNCCC(c1ccsc1)N1CCc2cnccc21` (stereo not drawn) [Example 74, 3-(2,3-Dihydro-1H-pyrrolo[3,2-c]pyridin-1-yl)-N-methyl-3-(thiophen-3-yl)propan-1-amine]: the Ki was above 1000 nM in test [1] and 500 to 3000 nM in test [2].

`CNCC[C@@H](c1sccc1Cl)N1CCc2ncccc21` [Example 37, (S)-3-(3-Chlorothiophen-2-yl)-3-(2,3-dihydro-1H-pyrrolo[3,2-b]pyridin-1-yl)-N-methylpropan-1-amine]: the values for the Ki in test [1] and in test [2] were 100 to 500 nM and at least 3000 nM, respectively.

For `CNCC[C@H](c1ccsc1)N1CC(C)(C)c2ncccc21` [Example 24, (R)-3-(3,3-Dimethyl-2,3-dihydro-1H-pyrrolo[3,2-b]pyridin-1-yl)-N-methyl-3-(thiophen-3-yl)propan-1-amine], the Ki in test [1] was above 1000 nM; in test [2] it was 100 to 500 nM.

Consider `CNCCC(c1ccsc1)N1CC(C)(C)c2nc(C)c(F)cc21` (stereo not drawn) [Example 71, 3-(6-Fluoro-3,3,5-trimethyl-2,3-dihydro-1H-pyrrolo[3,2-b]pyridin-1-yl)-N-methyl-3-(thiophen-3-yl)propan-1-amine], for which the Ki in test [1] was 100 to 500 nM; in test [2] it was below 100 nM.

Take `CNCC[C@@H](c1cccs1)N1CCc2c(C#N)cccc21` [Example 111, (S)-1-(3-(Methylamino)-1-(thiophen-2-yl)propyl)indoline-4-carbonitrile]: the results for the Ki in test [1] and in test [2] were below 100 nM and 500 to 3000 nM, respectively.

For the compound `CNCCC(c1cccs1)N1CC(C)(C)c2nc(C)ccc21` (stereo not drawn) [Example 64, N-methyl-3-(thiophen-2-yl)-3-(3,3,5-trimethyl-2,3-dihydro-1H-pyrrolo[3,2-b]pyridin-1-yl)propan-1-amine], the Ki in test [1] was 100 to 500 nM; in test [2], below 100 nM.

As to `CNCC[C@H](c1ccc(Cl)s1)N1CCc2ncccc21` [Example 41, (R)-3-(5-Chlorothiophen-2-yl)-3-(2,3-dihydro-1H-pyrrolo[3,2-b]pyridin-1-yl)-N-methylpropan-1-amine], the Ki is above 1000 nM in test [1] and 500 to 3000 nM in test [2].

Turning to `CNCC[C@@H](c1cc(C)sc1C)N1CCc2ncccc21` [Example 43, (S)-3-(2,3-Dihydro-1H-pyrrolo[3,2-b]pyridin-1-yl)-3-(2,5-dimethylthiophen-3-yl)-N-methylpropan-1-amine], the Ki is above 1000 nM in test [1] and at least 3000 nM in test [2].

As to `CNCC[C@@H](c1ccsc1)N1CC(C)(C)c2nc(C)ccc21` [Example 59, (S)-N-methyl-3-(thiophen-3-yl)-3-(3,3,5-trimethyl-2,3-dihydro-1H-pyrrolo[3,2-b]pyridin-1-yl)propan-1-amine], the Ki in test [1] and in test [2] was 100 to 500 nM in each case.

With `CNCC[C@@H](c1ccsc1)N1CC(C)(C)c2ncc(F)cc21` [Example 88, (S)-3-(6-Fluoro-3,3-dimethyl-2,3-dihydro-1H-pyrrolo[3,2-b]pyridin-1-yl)-N-methyl-3-(thiophen-3-yl)propan-1-amine], the Ki in test [1] lay within 500 to 1000 nM; in test [2], 100 to 500 nM.

On to `CCc1cnc2c(c1)N([C@H](CCNC)c1cccs1)CC2` [Example 32, (R)-3-(6-Ethyl-2,3-dihydro-1H-pyrrolo[3,2-b]pyridin-1-yl)-N-methyl-3-(thiophen-2-yl)propan-1-amine], for which the Ki in test [1] and in test [2] was 100 to 500 nM in each case.

For the compound `CNCC[C@H](c1ccsc1)N1CC(C)(C)c2nc(C)ccc21` [Example 58, (R)-N-methyl-3-(thiophen-3-yl)-3-(3,3,5-trimethyl-2,3-dihydro-1H-pyrrolo[3,2-b]pyridin-1-yl)propan-1-amine], the Ki in test [1] is above 1000 nM; in test [2], 100 to 500 nM.

With `CCc1cnc2c(c1)N([C@@H](CCNC)c1cccs1)CC2` [Example 33, (S)-3-(6-Ethyl-2,3-dihydro-1H-pyrrolo[3,2-b]pyridin-1-yl)-N-methyl-3-(thiophen-2-yl)propan-1-amine], the results for the Ki in test [1] and in test [2] were 500 to 1000 nM and at least 3000 nM, respectively.

As to `CNCC[C@H](c1ccsc1)N1CCc2ncccc21` [Example 22, (R)-3-(2,3-Dihydro-1H-pyrrolo[3,2-b]pyridin-1-yl)-N-methyl-3-(thiophen-3-yl)propan-1-amine], the figures for the Ki in test [1] and in test [2] were above 1000 nM and 500 to 3000 nM, respectively.

Take `CNCC[C@H](c1ccc(C)s1)N1CCc2ncccc21` [Example 44, (R)-3-(2,3-Dihydro-1H-pyrrolo[3,2-b]pyridin-1-yl)-N-methyl-3-(5-methylthiophen-2-yl)propan-1-amine]: the Ki is above 1000 nM in test [1] and 500 to 3000 nM in test [2].

Turning to `CNCCC(c1cccs1)N1CCc2ccccc21` (stereo not drawn) [Example 1, 3-(Indolin-1-yl)-N-methyl-3-(thiophen-2-yl)propan-1-amine], the Ki in test [1] is below 100 nM; in test [2], 500 to 3000 nM.

For the compound `CNCC[C@H](c1cccs1)N1CC(C)(C)c2ncc(F)cc21` [Example 106, (R)-3-(6-fluoro-3,3-dimethyl-2,3-dihydro-1H-pyrrolo[3,2-b]pyridin-1-yl)-N-methyl-3-(thiophen-2-yl)propan-1-amine], the values for the Ki in test [1] and in test [2] were above 1000 nM and below 100 nM, respectively.

As for `CNCC[C@H](c1ccsc1)N1CC(C)(C)c2nc(C)c(F)cc21` [Example 90, (R)-3-(6-Fluoro-3,3,5-trimethyl-2,3-dihydro-1H-pyrrolo[3,2-b]pyridin-1-yl)-N-methyl-3-(thiophen-3-yl)propan-1-amine], the Ki in test [1] was above 1000 nM; in test [2], below 100 nM.

Turning to `CNCCC(c1cccs1)N1CCc2nc(C)ccc21` (stereo not drawn) [Example 11, N-methyl-3-(5-methyl-2,3-dihydro-1H-pyrrolo[3,2-b]pyridin-1-yl)-3-(thiophen-2-yl)propan-1-amine], the Ki in test [1] was in the range of 500 to 1000 nM; in test [2] it was 100 to 500 nM.

Consider `CNCC[C@@H](c1ccsc1)N1CCc2ncc(C3CC3)cc21` [Example 53, (S)-3-(6-Cyclopropyl-2,3-dihydro-1H-pyrrolo[3,2-b]pyridin-1-yl)-N-methyl-3-(thiophen-3-yl)propan-1-amine], for which the Ki is above 1000 nM in test [1] and 500 to 3000 nM in test [2].

For `CNCC[C@H](c1ccsc1)N1CC(C)(C)c2nc(C(F)(F)F)ccc21` (racemic) [Example 79, 3-(3,3-Dimethyl-5-(trifluoromethyl)-2,3-dihydro-1H-pyrrolo[3,2-b]pyridin-1-yl)-N-methyl-3-(thiophen-3-yl)propan-1-amine], the Ki in test [1] was above 1000 nM; in test [2], 100 to 500 nM.

As for `CNCC[C@@H](c1cccs1)N1CCc2ncccc21` [Example 16, (S)-3-(2,3-Dihydro-1H-pyrrolo[3,2-b]pyridin-1-yl)-N-methyl-3-(thiophen-2-yl)propan-1-amine], the Ki in test [1] and in test [2] was 100 to 500 nM each time.
